How the values were obtained:
Type in all cases: biochemical
Syk = Syk (Homo sapiens, UniProt P43405); assay: Syk inhibition assay (coupled enzyme assay); details: 200 μM ATP, 4 μM poly Gly-Tyr peptide, 30° C.
Procedure: Reactions were carried out in 100 mM HEPES pH 7.5, 10 mM MgCl2, 25 mM NaCl, 1 mM DTT and 1.5% DMSO. Final substrate .concentrations in the assay were 200 μM ATP (Sigmachemical Co.) and 4 μM poly Gly-Tyr peptide (Sigma Chemical Co.). Assays were carried out at 30° C. and 200 nM Syk. Final concentrations of the components of the coupled enzyme system were 2.5 mM phosphoenolpyruvate, 300 μM NADH, 30 μg/ml pyruvate kinase and 10 μg/ml lactate dehydrogenase.
An assay stock buffer solution was prepared containing all of the reagents listed above, with the exception of Syk, DTT and the test compound of interest. 56 μl of the test reaction was placed in a 96 well plate followed by the addition of 1 μl of 2 mM DMSO stock containing the test compound (final compound concentration 30 μM). […] Rates of reaction were obtained using a BioRad Ultramark plate reader (Hercules, Calif.) over a 5 minute read time at 30° C.
(§1) The compound numbers correspond to the compound numbers in Table 1.

GSK3-β (AA 1-420) = GSK3-β (AA 1-420) (Homo sapiens, UniProt P49841); assay: GSK-3 inhibition assay (coupled enzyme system); details: 10 μM ATP, 300 μM peptide, 60 nM GSK-3β, 30° C.
Chain of GSK3-β (AA 1-420) (P49841 whole entry, the tested form may be a part): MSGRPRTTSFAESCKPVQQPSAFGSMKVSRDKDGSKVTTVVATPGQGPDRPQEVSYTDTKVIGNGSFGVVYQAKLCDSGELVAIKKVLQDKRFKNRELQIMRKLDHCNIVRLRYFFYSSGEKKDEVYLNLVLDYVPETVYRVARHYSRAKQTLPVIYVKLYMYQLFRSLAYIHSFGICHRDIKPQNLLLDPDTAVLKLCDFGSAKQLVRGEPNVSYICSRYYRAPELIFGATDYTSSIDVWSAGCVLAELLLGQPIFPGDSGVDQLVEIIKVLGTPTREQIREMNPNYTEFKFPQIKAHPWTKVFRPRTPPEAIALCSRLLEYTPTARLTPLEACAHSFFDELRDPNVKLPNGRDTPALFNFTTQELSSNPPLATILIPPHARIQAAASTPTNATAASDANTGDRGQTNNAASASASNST
Procedure: Compounds were screened for their ability to inhibit GSK3-β (AA 1-420) activity using a standard coupled enzyme system (Fox et al. (1998) Protein Sci. 7, 2249). Reactions were carried out in a solution containing 100 mM HEPES (pH 7.5), 10 mM MgCl2, 25 mM NaCl, 300 μM NADH, 1 mM DTT and 1.5% DMSO. Final substrate concentrations in the assay were 10 μM ATP (Sigma Chemicals, St Louis, Mo.) and 300 μM peptide (HSSPHQS(PO3H2)EDEEE, American Peptide, Sunnyvale, Calif.). Reactions were carried out at 30° C. and 60 nM GSK-3β. Final concentrations of the components of the coupled enzyme system were 2.5 mM phosphoenolpyruvate, 300μM NADH, 30 μg/ml pyruvate kinase and 10 μg/ml lactate dehydrogenase.
An assay stock buffer solution was prepared containing all of the reagents listed above with the exception of ATP and the test compound of interest. 59 μl of the test reaction was placed in a 96 well ½-diameter plate (Corning, Corning, N.Y.) then treated with 1 μl of a 2 mM DMSO stock containing the test compound (final compound concentration 30 μM). The plate was incubated for ˜10 minutes at 30° C. then the reaction initiated by addition of 7 μl of ATP (final concentration 10 μM). Rates of reaction were obtained using a Molecular Devices Spectramax plate reader (Sunnyvale, Calif.) over a 5 minute read time at 30° C.
as §1

Aurora2 = target: T1, Aurora2 (Homo sapiens, UniProt O14965); assay: Aurora2 inhibition assay (coupled enzyme assay); details: 800 μM peptide LRRASLG, 70 nM Aurora2, 30° C.
T1 sequence (O14965 1-403): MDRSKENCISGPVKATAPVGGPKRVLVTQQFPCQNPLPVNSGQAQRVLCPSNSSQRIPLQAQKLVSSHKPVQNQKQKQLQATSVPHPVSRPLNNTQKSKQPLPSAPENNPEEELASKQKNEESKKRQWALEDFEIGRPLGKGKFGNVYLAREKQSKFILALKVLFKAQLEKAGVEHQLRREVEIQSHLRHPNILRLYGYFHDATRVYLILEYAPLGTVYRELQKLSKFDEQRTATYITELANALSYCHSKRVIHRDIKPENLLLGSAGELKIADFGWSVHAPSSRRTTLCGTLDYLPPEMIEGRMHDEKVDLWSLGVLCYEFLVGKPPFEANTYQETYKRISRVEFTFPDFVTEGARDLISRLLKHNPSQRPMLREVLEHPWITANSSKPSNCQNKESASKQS
Procedure: Compounds are screened in the following manner for their ability to inhibit Aurora2 using a standard coupled enzyme assay (Fox et al (1998). Protein Sci 7, 2246). To an assay stock buffer solution containing 0.1M HEPES 7.5, 10 mM MgCl2, 1 mM DTT, 25 mM NaCl, 2.5 mM prosphoenolpyruvate, […], […] pyruvate kinase, […] lactate dehydrogenase, […], and 800 μM peptide (LRRASLG, American Peptide, Sunnyvale, Calif.) is added a DMSO solution of a compound of the present invention to a final concentration of 30 μM. The resulting mixture is incubated at 30° C. for 10 minutes. The reaction was initiated by the addition of 10 μL of Aurora2 stock solution to give a final concentration of 70 nM in the assay. The rates of reaction are obtained by monitoring absorbance at 340 nm over a 5 minute read time at 30° C. using a BioRad Ultramark plate reader (Hercules, Calif.). The IC50 values are determined from the rate data as a function of inhibitor concentration.
as §1

Structure (SMILES) | IC50 (Syk) | Ki (GSK3-β (AA 1-420)) | IC50 (Aurora2)
c1ccc(Oc2cccc(Nc3nccc(-c4nccs4)n3)c2)nc1 [Compound I-53] | 500 to 2000 nM | – | –
COc1ccc(OC)c(-c2cccc(Nc3nccc(-c4nccs4)n3)c2)c1 [Compound I-54] | – | < 100 nM | –
Nc1cccc(-c2cccc(Nc3nccc(-c4nccs4)n3)c2)c1 [Compound I-57] | – | < 100 nM | –
CSc1ccc(-c2cccc(Nc3nccc(-c4nccs4)n3)c2)cc1 [Compound I-60] | – | < 100 nM | –
c1cncc(-c2cccc(Nc3nccc(-c4nccs4)n3)c2)c1 [Compound I-63] | – | < 100 nM | –
Oc1ccc(-c2cccc(Nc3nccc(-c4nccs4)n3)c2)cc1 [Compound I-66] | – | < 100 nM | –
Oc1ccccc1-c1cccc(Nc2nccc(-c3nccs3)n2)c1 [Compound I-69] | – | < 100 nM | –
COc1ccc(Nc2nccc(-c3nccs3)n2)cc1 [Compound I-70] | – | – | 500 to 2000 nM
Oc1cccc(-c2cccc(Nc3nccc(-c4nccs4)n3)c2)c1 [Compound I-72] | – | < 100 nM | –
COc1cc(O)ccc1-c1cccc(Nc2nccc(-c3nccs3)n2)c1 [Compound I-75] | – | < 100 nM | –
c1cc(Nc2nccc(-c3nccs3)n2)cc(-c2ccc3[nH]ccc3c2)c1 [Compound I-78] | – | < 100 nM | –
N#Cc1cccc(COc2cccc(Nc3nccc(-c4nccs4)n3)c2)c1 [Compound I-79] | – | < 100 nM | > 2000 nM
CN(C)c1ccc(-c2cccc(Nc3nccc(-c4nccs4)n3)c2)cc1 [Compound I-81] | – | < 100 nM | –
Cc1cnc(Nc2cccc(-c3ccc(O)cc3)c2)nc1-c1nccs1 [Compound I-84] | – | < 100 nM | –
Fc1ccc(COc2cccc(Nc3nccc(-c4nccs4)n3)c2)cc1F [Compound I-85] | – | < 100 nM | > 2000 nM
Cc1cnc(Nc2cccc(-c3cccnc3)c2)nc1-c1nccs1 [Compound I-87] | – | < 100 nM | –
Cc1cnc(Nc2cccc(-c3cccc(N)c3)c2)nc1-c1nccs1 [Compound I-90] | – | < 100 nM | –
COc1ccc(-c2ccccc2)cc1Nc1ncc(C)c(-c2nccs2)n1 [Compound I-93] | – | > 1000 nM | –
COc1ccc(-c2ccccc2)cc1Nc1nccc(-c2nccs2)n1 [Compound I-96] | – | > 1000 nM | –
O=[N+]([O-])c1cccc(Nc2cccc(Nc3nccc(-c4nccs4)n3)c2)c1 [Compound I-97] | – | – | > 2000 nM
Cc1cnc(Nc2cccc(C(F)(F)F)c2)nc1-c1nccs1 [Compound I-99] | – | < 100 nM | –
Fc1cccc(COc2cccc(Nc3nccc(-c4nccs4)n3)c2)c1 [Compound I-100] | – | < 100 nM | > 2000 nM
Fc1cc(F)cc(COc2cccc(Nc3nccc(-c4nccs4)n3)c2)c1 [Compound I-103] | – | < 100 nM | > 2000 nM
COc1ccc(Nc2nccc(-c3nccs3)n2)cc1Oc1cccc(F)c1 [Compound I-105] | – | < 100 nM | –
COc1ccc(Nc2nccc(-c3nccs3)n2)cc1Oc1cccc(Cl)c1 [Compound I-108] | – | 100 to 1000 nM | –
COc1ccc(Nc2nccc(-c3nccs3)n2)cc1Oc1ccc(Cl)cc1 [Compound I-111] | – | < 100 nM | –
COc1ccc(Oc2ccccc2)cc1Nc1nccc(-c2nccs2)n1 [Compound I-114] | – | > 1000 nM | 500 to 2000 nM
Cc1ccccc1COc1cccc(Nc2nccc(-c3nccs3)n2)c1 [Compound I-115] | > 2000 nM | < 100 nM | –
COc1ccc(Oc2ccccc2)cc1Nc1ncc(C)c(-c2nccs2)n1 [Compound I-117] | – | > 1000 nM | –

From US7256190B2, “Thiazole compounds useful as inhibitors of protein kinase” (Vertex Pharmaceuticals Incorporated, priority 2001, dated 2007)
